Results reported in patent US12516052B2, “Methyltransferase 5 (PRMT5) inhibitors and methods of treatment” (THE TRUSTEES OF INDIANA UNIVERSITY, priority 2016, dated 2026).
“Also recorded” adds a separate entry of the source. Values belong to the compound of their own block, whether it stands above or below them.

Columns and labels:
NF-κB [1] = assay: NF-κB luciferase assay in PANC1 cells; type: cell-based; conditions: increasing concentrations
Description: (§1) Previously, it was discovered that PRMT5 activates NF-κB through methylation of its p65 subunit in HEK293 cells (Wei et al., Proc Natl Acad Sci USA, 2013; 110: 13516-13521; Wei et al., Cell Cycle, 2013; 13: 32-41). As shown in FIGS. 11A and 11B, overexpression of PRMT5 enhances NF-κB activity, while PRMT5 knockdown causes the opposite effect in both PANC1 (FIG. 11A) and HT-29 (FIG. 11B) cells. To determine if compound (IIa) decreases NF-κB activity, cells transfected with a NF-κB luciferase construct were treated with increasing concentrations of compound (IIa) or the control compound EPZ015666.

NF-κB [2] = assay: NF-κB luciferase assay in HT29 cells; type: cell-based; conditions: increasing concentrations
Description: as §1

[3] = tested on: PDAC cells (PANC1, MiaPaCa2 and AsPC1); assay: MTT cell viability assay in PDAC cell lines; type: cell-based; conditions: for cell viability in PDAC cells (PANC1, MiaPaCa2, AsPC1), MTT: increasing concentrations; for IC50: range over PANC1, MiaPaCa2 and AsPC1
Description: (§2) The PRMT5 inhibitory activity of the compounds from the screen was confirmed using both AlphaLISA and an MTT [(3-(4,5-dimethylthiazolyl-2)-2,5-diphenyltetrazolium bromide)] assay (PerkinElmer, Waltham, MA). For the MTT assay, cells were seeded at 90% confluence in 96-well plates and titrated with different dosages of compound (IIa) for 4 days. Media was then removed and 100 μl of MTT (Sigma-Aldrich, St. Louis, MO) was added per well. Cells were incubated for 2 hours at 37° C. before adding 100 μl of DMSO to each well and quantified with the SYNERGY™ H1 Multi-Mode Reader (BioTek Instruments Inc., Winooski, VT). The expression of PRMT5 was examined in pancreatic ductal adenocarcinoma cells at multiple stages of disease progression and in multiple colorectal cancer cell lines. Pancreatic control (HPNE) and cancer cell lines (PANC1, MiaPaCa2 and AsPC1) were grown in Dulbecco's Modified Eagle Medium (DMEM) (GE Healthcare, Little Chalfont, UK), supplemented with 1% of penicillin/streptomycin, 10% fetal bovine serum (FBS). Colon control (FHC) and cancer (HT29, HCT116, and DLD1) cell lines were maintained in RPMI 1640 Medium (Roswell Park Memorial Institute Medium) (GE Healthcare, Little Chalfont, UK), containing 1% penicillin/streptomycin and 10% FBS, while FHC cells were cultured under the same condition with further addition of 25 mM HEPES (4-(2-hydroxyethyl)-1-piperazineethanesulfonic acid), 10 ng/ml cholera toxin, 0.005 mg/ml insulin, 0.005 mg/ml transferring, and 100 ng/ml hydrocortisone. All cell lines were cultured at 37° C. under 5% CO2. The PDAC and CRC cell lines described above were treated with increasing concentrations of compound (IIa) or the commercially available PRMT5 inhibitor EPZ015666 [drawing 12] and quantified for cell viability using the MTT assay described above. […] A soft agar experiment was also performed to determine the effect of compound (IIa) on colony growth.

[4] = tested on: CRC cells (HT29, HCT116 and DLD1); assay: MTT cell viability assay in CRC cell lines; type: cell-based; conditions: for cell viability in CRC cells (HT29, HCT116, DLD1), MTT: increasing concentrations; for IC50: range over HT29, HCT116 and DLD1
Description: as §2

PRMT5 = target: T1, PRMT5 (Homo sapiens, UniProt O14744); assay: AlphaLISA PRMT5 methylation assay (biotin-histone H4R3, SAM); type: biochemical; conditions: PRMT5 methylation of histone H4R3, in vitro; read-out: IC50 using AlphaLISA
T1 construct: Flag; made in house; host or cells: 293 cells
Description: FIG. 1 is a schematic illustration of the AlphaLISA technique for the identification of small-molecule PRMT5 inhibitors. Biotinylated substrate (histone H4) is incubated with PRMT5 and methyl donor, S-adenosyl-1-methionine (SAM). PRMT5 symmetrically dimethylates the third arginine (R3) on biotin-H4 to form biotin-H4R3me2. This product is recognized by Acceptor beads specific for this methylation site. Donor beads have a streptavidin tag and bind to biotin-H4. Interaction between the Acceptor and Donor beads emits a chemiluminescent signal, which is detected by an ENVISION™ Reader (PerkinElmer, Waltham, MA). The methylation activity of PRMT5 is proportional to the intensity of this signal.
In order to identify PRMT5 inhibitors, the AlphaLISA technique (PerkinElmer, Waltham, MA) was adapted to an assay that could precisely quantify PRMT5 dimethylation of its substrate in a 384-well HTS platform (FIG. 1). The AlphaLISA high-throughput screen comprises incubating a biotinylated substrate (e.g., histone H4), PRMT5, and a methyl donor (e.g., S-adenosyl-1-methionine (SAM)); PRMT5 dimethylates the biotinylated substrate and the dimethylated biotinylated substrate is recognized by Acceptor beads specific for the methylation site. Donor beads comprising a tag (e.g., streptavadin) bind to the biotinylated substrate, and interaction between the Acceptor beads and Donor beads emits a signal (e.g., chemiluminescent signal), which can be detected. The methylation activity of PRMT5 is proportional to the intensity of the signal.
In one embodiment of the method used to identify the compounds disclosed herein, PRMT5 enzyme was purified with anti-Flag-M2 beads (Sigma-Aldrich, St. Louis, MO) from 293 cells overexpressing the Flag-PRMT5 protein (Wei et al., Proc Natl Acad Sci USA, 2013; 110: 13516-13521). The enzyme prep was diluted at 1:10 in assay buffer (30 mM Tris, pH 8.0, 1 mM DTT, 0.01% BSA, 0.01% Tween-20) before use. […] The plates were read using an ENVISION™ Reader (PerkinElmer, Waltham, MA).

HT-29 colon cancer cells = assay: MTT cell viability assay in HT-29 cells; type: cell-based; conditions: for IC50: 4 days treatment
Description: (§3) The PRMT5 inhibitory activity of the compounds from the screen was confirmed using both AlphaLISA and an MTT [(3-(4,5-dimethylthiazolyl-2)-2,5-diphenyltetrazolium bromide)] assay (PerkinElmer, Waltham, MA). For the MTT assay, cells were seeded at 90% confluence in 96-well plates and titrated with different dosages of compound (IIa) for 4 days. Media was then removed and 100 μl of MTT (Sigma-Aldrich, St. Louis, MO) was added per well. Cells were incubated for 2 hours at 37° C. before adding 100 μl of DMSO to each well and quantified with the SYNERGY™ H1 Multi-Mode Reader (BioTek Instruments Inc., Winooski, VT).
(§4) In order to identify small-molecule PRMT5 inhibitors with increased efficacy compared to compound (IIa), lead optimization of compound (IIa) was performed. Briefly, the pyrozolo-pyrimidine core was maintained and peripheral groups were either added or modified. Compounds were tested to identify PRMT5 inhibitors and their corresponding IC50 values using an MTT assay. For the MTT assay cells (HT-29 or PANC1) were seeded at 90% confluence in 96-well plates and titrated with different dosages of compound (IIa) for 4 days. Media was then removed and 100 μl of MTT (Sigma-Aldrich) was added per well. Cells were incubated for 2 hours at 37° C. before adding 100 μl of DMSO to each well and quantified with the Synergy H1 Multi-Mode Reader (BioTek Instruments Inc., Winooski, VT).

HT29 cells = assay: HT29 subcutaneous xenograft tumor efficacy study in NSG mice; type: in vivo; conditions: 20 mg/kg intraperitoneally 3×/week, vs vehicle control, n=4
Description: (§5) NSG (NOD scid gamma) mice were obtained from the In Vivo Therapeutics Core at Indiana University School of Medicine. After acclimation for 7 days, NSG mice (6-8 weeks old) were xenografted with mycoplasma-free PANC1 or HT29 cells subcutaneously (1×10^7 PANC1 or 3×10^6 HT29 cells used per mouse in 0.2 ml of a 1:1 mix of phosphate-buffered saline and MATRIGEL™) (BD Biosciences, San Jose, CA). Mice were randomized when tumor volumes reached about 100 mm^3. Mice were treated with either vehicle control or 20 mg/kg of compound (Ia) (drug stock dissolved in 1:1 CREMOPHOR™:ethanol solution) intraperitoneally 3 times per week. Tumor volumes and body weights were measured twice a week. The study was performed in accordance with the guidelines and standards of the Institutional Animal Care and Use Committee (IACUC). […] NSG (NOD scid gamma) mice were obtained from the In Vivo Therapeutics Core at Indiana University School of Medicine. After acclimation for 7 days, NSG mice (6-8 weeks old) were xenografted with mycoplasma-free PANC1 or HT29 cells subcutaneously (1×10^7 PANC1 or 3×10^6 HT29 cells used per mouse in 0.2 ml of a 1:1 mix of phosphate-buffered saline and MATRIGEL™) (BD Biosciences, San Jose, CA). Mice were randomized when tumor volumes reached about 100 mm^3. […] Tumor volumes and body weights were measured twice a week. […]

[5] = tested on: PANC1 pancreatic cancer cells; assay: MTT cell viability assay in PANC1 cells; type: cell-based; conditions: for IC50: 4 days treatment
Description: as §3, §4

[6] = Body weight of xenografted NSG mice during treatment; type: in vivo; conditions: 20 mg/kg intraperitoneally 3×/week, over the course of treatment
Description: NSG (NOD scid gamma) mice were obtained from the In Vivo Therapeutics Core at Indiana University School of Medicine. After acclimation for 7 days, NSG mice (6-8 weeks old) were xenografted with mycoplasma-free PANC1 or HT29 cells subcutaneously (1×10^7 PANC1 or 3×10^6 HT29 cells used per mouse in 0.2 ml of a 1:1 mix of phosphate-buffered saline and MATRIGEL™) (BD Biosciences, San Jose, CA). Mice were randomized when tumor volumes reached about 100 mm^3. Mice were treated with either vehicle control or 20 mg/kg of compound (Ia) (drug stock dissolved in 1:1 CREMOPHOR™:ethanol solution) intraperitoneally 3 times per week. Tumor volumes and body weights were measured twice a week. The study was performed in accordance with the guidelines and standards of the Institutional Animal Care and Use Committee (IACUC). […] NSG (NOD scid gamma) mice were obtained from the In Vivo Therapeutics Core at Indiana University School of Medicine. After acclimation for 7 days, NSG mice (6-8 weeks old) were xenografted with mycoplasma-free PANC1 or HT29 cells subcutaneously (1×10^7 PANC1 or 3×10^6 HT29 cells used per mouse in 0.2 ml of a 1:1 mix of phosphate-buffered saline and MATRIGEL™) (BD Biosciences, San Jose, CA). Mice were randomized when tumor volumes reached about 100 mm^3. Mice were treated with either vehicle control or 20 mg/kg of compound (IIa) (drug stock dissolved in 1:1 CREMOPHOR™:ethanol solution) intraperitoneally 3 times per week. Tumor volumes and body weights were measured twice a week. The study was performed in accordance with the guidelines and standards of the Institutional Animal Care and Use Committee (IACUC).

PANC1 cells = assay: PANC1 subcutaneous xenograft tumor efficacy study in NSG mice; type: in vivo; conditions: 20 mg/kg intraperitoneally 3×/week, vs vehicle control, n=4
Description: as §5

T1 sequence (O14744 whole entry): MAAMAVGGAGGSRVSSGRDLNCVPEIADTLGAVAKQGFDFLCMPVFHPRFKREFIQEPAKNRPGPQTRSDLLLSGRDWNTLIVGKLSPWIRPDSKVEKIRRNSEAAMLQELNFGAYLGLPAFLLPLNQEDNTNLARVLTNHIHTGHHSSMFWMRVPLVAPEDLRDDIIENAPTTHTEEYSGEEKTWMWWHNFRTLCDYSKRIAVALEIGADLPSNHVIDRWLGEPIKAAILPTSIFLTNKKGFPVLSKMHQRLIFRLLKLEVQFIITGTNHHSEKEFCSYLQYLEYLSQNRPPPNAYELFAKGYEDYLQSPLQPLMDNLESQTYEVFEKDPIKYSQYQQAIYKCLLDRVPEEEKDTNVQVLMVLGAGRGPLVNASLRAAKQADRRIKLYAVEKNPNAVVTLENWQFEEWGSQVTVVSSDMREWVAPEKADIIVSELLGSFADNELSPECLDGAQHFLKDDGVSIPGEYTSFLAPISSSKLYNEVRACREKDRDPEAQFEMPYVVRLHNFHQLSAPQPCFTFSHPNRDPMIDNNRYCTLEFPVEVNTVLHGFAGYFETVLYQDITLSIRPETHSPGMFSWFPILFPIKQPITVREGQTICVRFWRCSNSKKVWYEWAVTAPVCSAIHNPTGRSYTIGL
T1 sequence (Q9BQA1 whole entry partner): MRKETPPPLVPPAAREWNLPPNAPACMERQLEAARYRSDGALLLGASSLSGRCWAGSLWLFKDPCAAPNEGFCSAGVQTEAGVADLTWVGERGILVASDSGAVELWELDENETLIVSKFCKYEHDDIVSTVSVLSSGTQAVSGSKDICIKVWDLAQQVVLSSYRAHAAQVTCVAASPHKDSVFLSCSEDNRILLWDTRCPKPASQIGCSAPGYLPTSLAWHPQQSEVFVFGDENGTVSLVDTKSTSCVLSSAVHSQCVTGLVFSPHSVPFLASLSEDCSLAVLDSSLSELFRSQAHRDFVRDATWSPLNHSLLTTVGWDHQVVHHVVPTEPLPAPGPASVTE

Structure (SMILES): O=C(NC[C@H](O)CN1CCc2ccccc2C1)c1cc(NC2COC2)ncn1 [EPZ015666, reference compound]
- NF-κB activation (luciferase), PANC1 (NF-κB [1]): much higher concentration; also recorded: needed a higher concentration
- NF-κB activation (luciferase), HT29 (NF-κB [2]): much higher concentration; also recorded: needed a higher concentration
- cell viability in PDAC cells (PANC1, MiaPaCa2, AsPC1), MTT [3]: lower efficacy
- IC50 [3]: 50 to 95 µM
- cell viability in CRC cells (HT29, HCT116, DLD1), MTT [4]: lower efficacy
- IC50 [4]: 180 to 195 µM

Structure (SMILES): O=C(NC[C@H]1C[C@@H]2CC[N@@]1C[C@@H]2CN1CCC(Cc2ccccc2)CC1)c1ccc2c(c1)OCO2 [compound (IIIa)]
- cell viability in PDAC cells (PANC1, MiaPaCa2, AsPC1), MTT [3]: decreased significantly
- IC50 [3]: 8.5 to 12.5 µM
- IC50 (PRMT5): ~1.5 µM
- cell viability in CRC cells (HT29, HCT116, DLD1), MTT [4]: decreased significantly
- IC50 [4]: 5 to 11 µM

Structure (SMILES): COc1cc(C)c(Oc2cc(C)cc(O)c2O)c(O)c1 [compound (IVa)]
- cell viability in PDAC cells (PANC1, MiaPaCa2, AsPC1), MTT [3]: decreased significantly
- IC50 [3]: 22 to 51 µM
- IC50 (PRMT5): ~16.5 µM
- cell viability in CRC cells (HT29, HCT116, DLD1), MTT [4]: decreased significantly
- IC50 [4]: 35 to 50 µM

Structure (SMILES): Cc1ccc(-n2ncc3c(NCc4cccnc4)nc(Cl)nc32)cc1 [compound (Ia)]
- IC50 (HT-29 colon cancer cells): 2.2 µM
- IC50 (HT-29 colon cancer cells; Homo sapiens, HT-29, 96 h): 2 µM
- cell viability in CRC cells (HT29), MTT (HT-29 colon cancer cells; increasing concentrations): decreased significantly
- tumor growth (tumor volume), HT29 xenograft (HT29 cells): significant tumor inhibition effect; also recorded: inhibition of tumor growth
- cell viability in PDAC cells (PANC1), MTT ([5]; increasing concentrations): decreased significantly
- body weight, HT29 model [6]: did not visibly affect the body weight; also recorded: no significant changes in body weight
- body weight, PANC1 model [6]: did not visibly affect the body weight; also recorded: no significant changes in body weight
- tumor growth (tumor volume), PANC1 xenograft (PANC1 cells): significant tumor inhibition effect; also recorded: inhibition of tumor growth

Next, values leading:

- IC50 ([5]; Homo sapiens, PANC-1, 96 h): 11 µM
Structure (SMILES): Clc1ccc(-n2ncc3c(NCCN4CCCC4)nc(Cl)nc32)cc1 [compound (Ib)]

- IC50 (HT-29 colon cancer cells; Homo sapiens, HT-29, 96 h): 7 µM
- IC50 ([5]; Homo sapiens, PANC-1, 96 h): 8 µM
Structure (SMILES): Clc1ccc(-n2ncc3c(NCC4CCCO4)nc(Cl)nc32)cc1 (centres unmarked) [compound (If)]

- IC50 (HT-29 colon cancer cells): 7 µM
- IC50 [5]: 11 µM
Structure (SMILES): Clc1ccc(-n2ncc3c(NCC4CCCO4)nc(Cl)nc32)cc1 (centres unmarked) [compound (Ig)]
